Reference: patent US20130236445A1, “Bromelain proteinases (Bromelainases) as chemotherapeutic agents in treating and/or preventing various types of cancer in a mammal” (Garfield Medical Group, priority 2011, published 2013)

Key:
tumor cell [1] = conditions: in vitro; cited from earlier work
TNFα, II-2 = conditions: in vitro; cited from earlier work
tumor cells = conditions: in vitro; cited from earlier work
CD44 = conditions: in vitro; cited from earlier work
tumor cell [2] = conditions: in vitro; cited from earlier work; remark: listed apart in the source
[3] = rabbit, in vivo
Protocol: After 8 weeks of treatment, the rabbits were anesthetized with injections of ketamine 75 mg/kg in the femoral muscle and sacrificed. Blood samples were collected from the heart of each rabbit to determine the blood analysis consisting of: complete blood count (CBC), Chemistry-7 and 24, (including Liver and renal function tests), lipid profiles (including Total cholesterol, HDL, LDL, VLDL, and triglycerides), coagulation factors consisting of; prothrombin time (PT), partial thromboplastin time (PPT), and immune-globulin-E.
All laboratory blood analysis were performed on rabbits of all 7 groups, The results were tested using student t-test and Microsoft Excel-7 programs.

[4] = examination of internal organs of bromelain-treated rabbits; design: species or system white rabbits; conditions: rabbit, in vivo
Protocol: One half of each organ was frozen and the other half was fixed with 10% neutral buffered formalin for 24 hours. Then the fixed organs were washed […] stepwise dehydrated with 70%, 80%, 90%, 100% ethanol and then embedded in paraffin by using Shandon-Histocentre-2. The embedded organ blocks were sectioned in 4 µm thickness with a microtome (McBain, M 820, American Optical Co. USA) and stained with hematoxylin and eosin stain (H.E. stain). The stained specimens were made transparent with xylene, and mounted with permount on microslides.

Substance | tumor cell invasion through extracellular matrix, effect (tumor cell [1]) | secretion of TNFα, II-2, effect (TNFα, II-2) | immunocytotoxicity of lymphocytes against tumor cells, effect (tumor cells) | CD44 expression on metastatic cells, effect (CD44) | tumor cell proliferation, effect (tumor cell [2]) | GGTP [3] | HDL [3] | Hb [3] | SGOT [3] | SGPT [3] | TC (total cholesterol) [3] | TRG (triglycerides) [3] | WBC [3] | laboratory blood tests, differences between groups [3] | internal organs, microscopic examination (H.E. stain) [4]
Stem bromelain [Bromelain F4] | = |  |  |  |  |  |  |  |  |  |  |  |  |  | 
Ananain [Bromelain F9] | = | ↑ | ↑ | ↓ | ↓ |  |  |  |  |  |  |  |  |  | 
Bromelain |  |  |  |  |  | 7+—1 | 43.6+—16.5 mg/ | 11.9+—1.9 gm/dl | 110.8+—30.7 u/l | 71.2+—3.8 u/l | 175.6+—36.8 mg/dl | 92.6+—38.8 mg/dl | 7.3+—2.2 k/ul | no differences among or within each groups | no pathological abnormalities or lesions
